In brackets after ≈: the same amount, converted by molar mass. Read-outs that look alike come from different tables or passages of the source.

The test system of one assay is Ch. globosum 2b/26. Kind of assay: Resistance to biocides: ascospore germination. It counts as cell-based, Chaetomium globosum. Conditions: strain 2b/26, indoor Ch. globosum. The procedure:
(§1) The toxicity of biocides and chemicals towards the indoor Chaetomium-like isolates and the reference indoor strains of the genera Aspergillus, Paecilomyces, Penicillium and Trichoderma was assessed in parallel with the six parameters presented in the Supplementary Materials: (1) germ tube assay (Figure S3); (2) estimation of turbidity (Figure S4); (3) visual emission of fluorescence (excitation at 360 nm); (4) visual resporulation of conidia; (5) inhibition of glucose consumption; and (6) resazurin reduction. All assays were performed in malt extract broth (12 g L^−1 malt extract, 7.2 µmol mL^−1 glucose, pH 5.5; Scharlab, Barcelona, Spain) in 96-well microtiter plates as described for the ICP assay.
(§2) The assays measuring inhibition of germination of conidia were done with spore suspensions of 1–2 × 10^6 fungal spores mL−^1. The tests were performed in malt extract broth (Oxoid, Hampshire United Kingdom) 12 g in 1 L, pH 5.5, glucose 7.1 mmol L^−1, and performed on microtiter plates as described by Bencsik et al. for the ICP assay. The germ tube germination is visualized in Figure S3, and the tests estimating turbidity and emission of fluorescence provoked by the germinated and metabolically active conidia and C. globosum ascospores are visualized in Figures S4 and S5. Examples of the tests estimating fluorescence emission, turbidity and re-sporulation of conidia and ascospores are compared in Figure S5. The difference of the endpoints measured with the different assays was between […]. The resazurin reduction assays (Figure S6) were performed as described for the ICP assay, except that the microtiter plates were visually inspected for the change of the blue/violet color of resazurin (indicating inhibition of germination of the exposed conidia) to the […] (indicating metabolic activity and germination of the exposed conidia).
(§3) The formation of germ tubes was inspected by a phase-contrast microscope (Olympus CKX41, Tokyo, Japan; magnification 400×) and an image recording software (Cellsense® standard version 11.0.06, Olympus Soft Imaging Solutions GmbH, Münster, Germany, 2012) after 1 and 2 days of incubation at 28 °C. The EC50 corresponded to the inhibition of 50% (estimated as the concentration between EC0 and EC100) of the conidia compared to the ethanol control (the growth medium containing 1% of ethanol). The tests were run in triplicate and calibrated with triclosan (CAS: 3380-34-5; Sigma Chemical Co., St. Louis, MO, USA) giving a mean SD of ±<20%.

Assay [1] relates to Aspergillus calidoustus MH4. In words: Resistance to biocides: conidial germination. The format is cell-based. Particulars: strain MH4, indoor Aspergillus calidoustus. The procedure:
as §1, §2, §3

Assay [2] has as its system Aspergillus section Nigri Asp 32. Kind of assay: Resistance to biocides: conidial germination. It counts as cell-based. Conditions: strain Asp 32, indoor Aspergillus section Nigri. The procedure:
as §1, §2, §3

Assay [3] relates to Aspergillus section Nigri Asp21. Kind of assay: Resistance to biocides: conidial germination. The format is cell-based. Particulars: strain Asp21, indoor Aspergillus section Nigri. The procedure: as §1, §2, §3
For assay [4], the system named is Aspergillus section Nigri Asp33b. In words: Resistance to biocides: conidial germination. Conditions: strain Asp33b, indoor Aspergillus section Nigri. The format is cell-based. The procedure:
as §1, §2, §3

For assay [5], the system named is Aspergillus westerdijkiae PP3. In words: Resistance to biocides: conidial germination. The format is cell-based. Conditions: strain PP3, Aspergillus westerdijkiae. The procedure: as §1, §2, §3
Assay [6] relates to Indoor Trichoderma atroviride 14/AM. In words: Resistance to biocides: conidial germination. The format is cell-based. Conditions: strain 14/AM. The procedure: as §1, §2, §3
The subject of assay [7] is Indoor Trichoderma atroviride KIV10. In words: Resistance to biocides: conidial germination. The format is cell-based. Conditions: strain KIV10, indoor Trichoderma atroviride. The procedure: as §1, §2, §3
Assay [8] has as its system Indoor Trichoderma atroviride Ke14. Kind of assay: Resistance to biocides: conidial germination. It counts as cell-based. Conditions: strain Ke14, indoor Trichoderma atroviride. The procedure: as §1, §2, §3
Assay [9] relates to Indoor Trichoderma atroviride Tri335. Kind of assay: Resistance to biocides: conidial germination. It counts as cell-based. Particulars: strain Tri335, indoor Trichoderma atroviride. The procedure:
as §1, §2, §3

The subject of assay [10] is Indoor Trichoderma atroviride Tri7A/SKK. In words: Resistance to biocides: conidial germination. It counts as cell-based. Particulars: strain Tri7A/SKK. The procedure:
as §1, §2, §3

In assay [11] the test system is Paecilomyces sp. Pec1/his. In words: Resistance to biocides: conidial germination. The format is cell-based. Conditions: strain Pec1/his, indoor Paecilomyces sp. The procedure: as §1, §2, §3
Assay [12] relates to Paecilomyces sp. Pec1/skk. Kind of assay: Resistance to biocides: conidial germination. It counts as cell-based. Particulars: strain Pec1/skk, indoor Paecilomyces sp. The procedure:
as §1, §2, §3

The subject of assay [13] is Paecilomyces variotii Pac1/kop. In words: Resistance to biocides: conidial germination. The format is cell-based. Conditions: strain Pac1/kop, indoor Paecilomyces variotii. The procedure: as §1, §2, §3
Assay [14] concerns Paecilomyces variotii Pac2/kop. Kind of assay: Resistance to biocides: conidial germination. The format is cell-based. Particulars: strain Pac2/kop, indoor Paecilomyces variotii. The procedure: as §1, §2, §3
The subject of a further assay is Penicillium sp. 20b/skk. Kind of assay: Resistance to biocides: conidial germination. The format is cell-based. Particulars: strain 20b/skk, indoor Penicillium sp. The procedure:
as §1, §2, §3

The subject of another assay is Penicillium sp. 26/skk. In words: Resistance to biocides: conidial germination. It counts as cell-based. Particulars: strain 26/skk, indoor Penicillium sp. The procedure:
as §1, §2, §3

Assay [15] relates to Trichoderma citrinoviride SJ40. Kind of assay: Resistance to biocides: conidial germination. It counts as cell-based. Conditions: strain SJ40, indoor Trichoderma citrinoviride. The procedure: as §1, §2, §3
Assay [16] relates to Outdoor T. atroviride SZMC 12323. Kind of assay: Resistance to biocides: conidial germination. Conditions: strain SZMC 12323, outdoor T. atroviride. It counts as cell-based, Trichoderma atroviride. The procedure: as §1, §2, §3
Assay [17] has as its system Outdoor T. atroviride SZMC 12474. Kind of assay: Resistance to biocides: conidial germination. It counts as cell-based, Trichoderma atroviride. Particulars: strain SZMC 12474, outdoor T. atroviride. The procedure:
as §1, §2, §3

In assay [18] the test system is Outdoor T. atroviride SZMC 12516. In words: Resistance to biocides: conidial germination. It counts as cell-based, Trichoderma atroviride. Conditions: strain SZMC 12516, outdoor T. atroviride. The procedure:
as §1, §2, §3

The subject of assay [19] is Outdoor T. atroviride SZMC 12541. Kind of assay: Resistance to biocides: conidial germination. It counts as cell-based, Trichoderma atroviride. Particulars: strain SZMC 12541, outdoor T. atroviride. The procedure:
as §1, §2, §3

For assay [20], the system named is Outdoor T. atroviride SZMC 1723. In words: Resistance to biocides: conidial germination. The format is cell-based, Trichoderma atroviride. Conditions: strain SZMC 1723, outdoor T. atroviride. The procedure: as §1, §2, §3
In assay [21] the test system is Outdoor T. atroviride SZMC 207080. In words: Resistance to biocides: conidial germination. It counts as cell-based, Trichoderma atroviride. Conditions: strain SZMC 207080, outdoor T. atroviride. The procedure:
as §1, §2, §3

Setting [22] is: Trichoderma atroviride, read-out: EC50.

Take “polyhexamethylene biguanide hydrochloride [PHMB]”: the 50% effective concentration (EC50) in the assay with Ch. globosum 2b/26 was 8 µg/mL; in [1], 8 µg/mL; in assay [2] it was 60 µg/mL; in [3] it was 30 µg/mL; in assay [4] it was 30 µg/mL; in assay [5], 60 µg/mL. Moreover, the EC50 in [6] was 4 µg/mL; in assay [7] it was 4 µg/mL; in assay [8] it was 4 µg/mL; in [9], 4 µg/mL; in assay [10] it was 8 µg/mL; in assay [11] it was 30 µg/mL. The EC50 in assay [12] is 16 µg/mL; in assay [13], 30 µg/mL; in [14], 30 µg/mL; in the assay on Penicillium sp. 20b/skk, 30 µg/mL; with Penicillium sp. 26/skk it was 30 µg/mL; in [15], 2 µg/mL. Besides, the EC50 turned out to be 8 µg/mL in assay [16]; 4 µg/mL in assay [17]; 30 µg/mL in assay [18]; 2 µg/mL in assay [19]; 8 µg/mL in [20]; 8 µg/mL in assay [21].

For `NCl` [Chloramine, chloramine], the EC50 in the assay with Ch. globosum 2b/26 was found to be 2500 µg/mL (≈ 48600 µM); in assay [5], 600 µg/mL (≈ 11700 µM); in assay [7], 2400 µg/mL (≈ 46600 µM); in [10], 2500 µg/mL (≈ 48600 µM); with Penicillium sp. 20b/skk, 600 µg/mL (≈ 11700 µM); in the assay on Penicillium sp. 26/skk it was 600 µg/mL (≈ 11700 µM). Also, the EC50 in assay [16], in assay [17], in [18], in [19], in assay [20] and in [21] was 2500 µg/mL (≈ 48600 µM) each time.

For `Oc1cc(Cl)ccc1Oc1ccc(Cl)cc1Cl` [Triclosan, 5-Chloro-2-(2,4-dichlorophenoxy)phenol], the concentration giving a half-maximal response (EC50) is 4 µg/mL (≈ 13.8 µM) in the assay on Ch. globosum 2b/26 (Chaetomium globosum, read-out: EC50); 16 µg/mL (≈ 55.3 µM) in assay [1] (read-out: EC50); 16 µg/mL (≈ 55.3 µM) in assay [2] (read-out: EC50); 30 µg/mL (≈ 104 µM) in assay [3] (read-out: EC50); 16 µg/mL (≈ 55.3 µM) in assay [4] (read-out: EC50); 16 µg/mL (≈ 55.3 µM) in assay [5] (read-out: EC50). The EC50 was determined as 30 µg/mL (≈ 104 µM) in assay [6] (read-out: EC50); 30 µg/mL (≈ 104 µM) in assay [7] (read-out: EC50); 16 µg/mL (≈ 55.3 µM) in [8] (read-out: EC50); 30 µg/mL (≈ 104 µM) in assay [9] (read-out: EC50); 16 µg/mL (≈ 55.3 µM) in [10] (read-out: EC50); 30 µg/mL (≈ 104 µM) in [11] (read-out: EC50). The EC50 in [12] (read-out: EC50) was 4 µg/mL (≈ 13.8 µM); in assay [13] (read-out: EC50), 4 µg/mL (≈ 13.8 µM); in [14] (read-out: EC50), 4 µg/mL (≈ 13.8 µM); in the assay with Penicillium sp. 20b/skk (SP.20B/SKK, read-out: EC50), 2 µg/mL (≈ 6.91 µM); in the assay with Penicillium sp. 26/skk (SP.26/SKK, read-out: EC50), 30 µg/mL (≈ 104 µM); in assay [15] (read-out: EC50) it was 8 µg/mL (≈ 27.6 µM). In addition, the EC50 in assay [16] (setting [22]) is 30 µg/mL (≈ 104 µM); in assay [17] (setting [22]) it was 8 µg/mL (≈ 27.6 µM); in assay [18] (setting [22]), 16 µg/mL (≈ 55.3 µM); in [19] (setting [22]), 16 µg/mL (≈ 55.3 µM); in assay [20] (setting [22]), 16 µg/mL (≈ 55.3 µM); in [21] (setting [22]), 8 µg/mL (≈ 27.6 µM).

As a reminder, the EC50 is the concentration at which the effect is half-maximal.

The values above are taken from PMC7405012, “Detection of Chaetomium globosum, Ch. cochliodes and Ch. rectangulare during the Diversity Tracking of Mycotoxin-Producing Chaetomium-like Isolates Obtained in Buildings in Finland” (Toxins, 2020).
